# According to patent publication US10766863B2, “Monocarboxylate transport modulators and uses thereof” (NIROGYONE THERAPEUTICS, INC., priority 2014, dated 2020):
# Test system: monocarboxylate transporters
# Experiment: Lactate uptake by 14C-lactate labeling assay
# Format: cell-based
# Details: SiHa cells, compound one hour, 2 μM 14C-lactate for 12 minutes; read-out: Lactate Consumption (%)/[IC50][14C labeled]
# Experimental: Measuring Lactate Uptake by ^14 C-lactate Labeling Assay.
# The inhibition of monocarboxylate transporters of the invention was determined using ^14CLactate, and the data are shown in Table II. Cells are maintained in their appropriate growth medium (DMEM medium with 4.5 g/L glucose, 4 mM L-glutamine supplemented with 10% FBS and P/S (growth medium). Cell culture surface of 24-well cell culture plates (BD Bioscience) were aseptically coated with 80 μL poly-lysine (1 mg/mL, Sigma) for 5 mins, then rinsed with sterile cell culture grade water, air-dried for at least 2 hours before introducing cells and medium. SiHa cells were seeded in poly-lysine coated 24-well plate at 500,000 cells/well in growth medium for 6 hours. Replace the growth medium with 1 mL lactate medium (10 mM lactate in base DMEM without sodium pyruvate) for overnight. Cells were rinsed with modified Kreb solution (containing 10 μM L-lactate, without glucose) and then treated with vehicle or increasing concentrations of compounds (0.1, 1, 10, 100 μM) at 37° C. in 1 mL modified Kreb solution (containing 10 μM L-lactate, 0.25% BSA) for one hour. […] After one hour agitation, the radioactivity was measured using Microbeta TriLux. CPM value was recorded and normalized to protein concentration.
row,SMILES,IC50
1,"CC(C)Cn1cc(C(=O)O)c(=O)c2cc(F)c(N(C)Cc3ccccc3)cc21 [Example 1, 7-(benzyl(methyl)amino)-6-fluoro-1-isobutyl-4-oxo-1,4-dihydroquinoline-3-carboxylic acid]",< 1000 nM

# Test system: panel of solid and haemotological tumor cell lines
# Experiment: MTS or MTT cell proliferation assay (cytotoxicity of MCT inhibition)
# Format: cell-based
# Details: Homo sapiens; MTS or MTT readout, 72 hours post-dosing; growth medium or 10 mM lactate medium (SiHa); cell line not given
# Experimental: MTS or MTT Cell Proliferation Assay
# The anti-proliferation effect of MCT inhibition was investigated across a panel of solid and haemotological tumor cell lines. Cells were routinely cultured in their appropriate growth medium. On day 1, between 5,000 -10,000 cells/well were plated into 96-well plates. 100 μL of phosphate buffered saline solution was added to the external wells to prevent media evaporation. Plates were incubated overnight at 37° C. in the presence of 5% CO2. On day 2, dry weight compound stocks were dissolved to a concentration of 20 mM in 100% DMSO. Compounds were further diluted in either growth medium or 10 mM lactate medium (For SiHa cell lines; Basic DMEM, 10% FBS, 10 mM Na-Lactate, 2.2 g/L NaHCO3, no glutamine) to generate a final dose range of 10 nM to 100 μM. Plates were then incubated at 37° C. in the presence of 5% CO2 for a further 72 hours post-dosing. On day 5, 20 μL of CellTiter 96 AQ MTS reagent or MTT was added to each well and the plate was returned to the incubator for 2-4 hours. In case of lactate medium, the medium was replaced by 100 μL of growth medium and 20 μL of CellTiter 96 AQ MTS reagent or replaced the media in cells with 100 uL of growth media containing 10% MTT solution,. MTS or MTT is bioreduced by NADPH or NADH produced by dehydrogenase enzymes in metabolically active cells into a coloured formazan product that is soluble in tissue culture medium. The amount of coloured formazan product is directly proportional to the number of living cells in culture. In the case of MTT, after 4 hr incubation, the media was removed from the plates and the plate was air-dried. Then, 100 uL of DMSO was added to each well, and incubated for 30 mins at room temperature with mild shaking. The absorbance of the plates was read on a Synergy H4 plate reader using […] or 540 nm measurement wavelength. Dose response curves were plotted and IC50 values were calculated using Prism. The IC50 value is equivalent to the concentration of compound that causes 50% inhibition of growth calculated from the compound treated signal to the vehicle treated signal.
row,SMILES,EC50
1,"COc1cccc(CN(C)c2cc3c(cc2F)c(=O)c(C(=O)O)cn3CC(C)C)c1 [Example 8, 6-fluoro-1-isobutyl-7-((3-methoxybenzyl) (methyl)amino)-4-oxo-1,4-dihydroquinoline-3-carboxylic acid]",< 1000 nM
2,"CC(C)Cn1cc(C(=O)O)c(=O)c2cc(F)c(NCc3cccc(C(F)(F)F)c3)cc21 [Example 5, 6-fluoro-1-isobutyl-4-oxo-7-((3-(trifluoro-methyl)benzyl)amino)-1,4-dihydroquinoline-3-carboxylic acid]",< 1000 nM
3,"CC(C)n1cc(C(=O)O)c(=O)c2cc(F)c(N(C)Cc3cccnc3)cc21 [Example 16, 6-fluoro-1-isopropyl-7-(methyl(pyridin-3-ylmethyl)amino)-4-oxo-1,4-dihydro-quinoline-3-carboxylic acid]",< 1000 nM
4,"CC(C)Cn1cc(C(=O)O)c(=O)c2cc(F)c(N(C)Cc3cccs3)cc21 [Example 10, 6-fluoro-1-isobutyl-7-(methyl(thiophen-2-ylmethyl)amino)-4-oxo-1,4-dihydro-quinoline-3-carboxylic acid]",< 1000 nM
5,"CC(C)Cn1cc(C(=O)O)c(=O)c2cc(F)c(N(C)CC3CCN(C)CC3)cc21 [Example 9, 6-fluoro-1-isobutyl-7-(methyl((1-methyl-piperidin-4-yl)methyl)amino)-4-oxo-1,4-dihydroquinoline-3-carboxylic acid]",< 1000 nM
6,"CC(C)Cn1cc(C(=O)O)c(=O)c2cc(F)c(N(C)Cc3ccc(Cl)cc3)cc21 [Example 4, 7-((4-chlorobenzyl) (methyl)amino)-6-fluoro-1-isobutyl-4-oxo-1,4-dihydro-quinoline-3-carboxylic acid]",< 1000 nM
7,"CCn1cc(C(=O)O)c(=O)c2cc(F)c(N(C)Cc3ccccc3)cc21 [Example 6, 7-(benzyl(methyl)amino)-1-ethyl-6-fluoro-4-oxo-1,4-dihydroquinoline-3-carboxylic acid]",< 1000 nM
8,"CC(C)Cn1cc(C(=O)O)c(=O)c2cc(F)c(N(C)Cc3cccc(F)c3)cc21 [Example 7, 6-fluoro-7-((3-fluorobenzyl)(methyl)amino)-1-isobutyl-4-oxo-1,4-dihydro-quinoline-3-carboxylic acid]",< 1000 nM
9,"CC(C)Cn1cc(C(=O)O)c(=O)c2cc(F)c(N(C)Cc3ccccc3)cc21 [Example 1, 7-(benzyl(methyl)amino)-6-fluoro-1-isobutyl-4-oxo-1,4-dihydroquinoline-3-carboxylic acid]",< 1000 nM
10,"CC(C)n1cc(C(=O)O)c(=O)c2cc(F)c(N(C)Cc3ccccc3)cc21 [Example 17, 7-(benzyl(methyl)amino)-6-fluoro-1-isopropyl-4-oxo-1,4-dihydro-quinoline-3-carboxylic acid]",< 1000 nM
11,"CC(C)Cn1cc(C(=O)O)c(=O)c2cc(F)c(N(C)Cc3cccc(C(F)(F)F)c3)cc21 [Example 3, 6-fluoro-1-isobutyl-7-(methyl(3-(trifluoro-methyl)benzyl)amino)-4-oxo-1,4-dihydroquinoline-3-carboxylic acid]",< 1000 nM
12,"CC(C)n1cc(C(=O)O)c(=O)c2cc(F)c(N(C)Cc3ccc(F)cc3)cc21 [Example 18, 6-fluoro-7-((4-fluorobenzyl)(methyl)amino)-1-isopropyl-4-oxo-1,4-dihydro-quinoline-3-carboxylic acid]",< 1000 nM
13,"CC(C)Cn1cc(C(=O)O)c(=O)c2cc(F)c(N(C)C(=O)c3ccccc3)cc21 [Example 11, 6-fluoro-1-isobutyl-7-(N-methylbenzamido)-4-oxo-1,4-dihydro-quinoline-3-carboxylic acid]",< 1000 nM
14,"Cc1cc(C)n(Cc2cc3c(cc2C(=O)N2CCC2)c(=O)c(C(=O)O)cn3CC(C)C)n1 [Example 15, 6-(azetidine-1-carbonyl)-7-((3,5-dimethyl-1H-pyrazol-1-yl)methyl)-1-isobutyl-4-oxo-1,4-dihydroquinoline-3-carboxylic acid]",< 1000 nM
15,"COc1cccc(CN(C)c2cc3c(cc2F)c(=O)c(C(=O)O)cn3Cc2ccccc2)c1 [Example 12, 1-benzy1-6-fluoro-7-((3-methoxybenzyl) (methyl)amino)-4-oxo-1,4-dihydroquinoline-3-carboxylic acid]",< 1000 nM

# Test system: monocarboxylate transporters
# Experiment: Lactate consumption assay in tumor cell lines (enzymatic L-Lactate Kit II)
# Format: cell-based
# Details: tumor cells in 10 mM lactate medium, compound 24 hours; concentration not given
# Experimental: Lactate Consumption Assay in Tumor Cell Lines.
# Cells are maintained in their appropriate growth medium (DMEM medium with 4.5 g/L glucose, 4 mM L-glutamine supplemented with 10% FBS and P/S (growth medium). Cells (500,000 cells/well) were seeded in 24-well plate in growth medium for 6 hours. Replace the growth medium with 1 mL lactate medium (10 mM lactate in base DMEM without sodium pyruvate) for overnight. Cells were treated with compounds in 1 mL lactate medium for 24 hours. The culture medium was collected and centrifuged at 12,000 rpm for 5 minutes at 4° C. to get rid of any cell debris. An aliquot of 0.5 mL of the supernatant was loaded to a deproteinizing column, centrifuged at 12,000 rpm for 15 minutes at 4° C. The flow-through was collected and stored at -80° C. for future analysis. The amount of lactate in the supernatant was analyzed by enzymatic L-Lactate Kit II (Eton Bioscience Inc.). Briefly, 50 μL of 10 times diluted sample was mixed with 50 μL reaction mixture. Lactic acid is oxidized by enzyme reactions to yield color product, which can be measured in dual modes, either at 570 nm for colorimetric assay or with Ex 530-560/Em 570-595 nm fluorescence assay. And the color or fluorescence intensity is proportional to lactic acid concentrations, therefore the sample lactic acid concentration can be accurately calculated based on the lactic acid standards. […]
row,SMILES,Lactate Consumption [Lactate Kit] (%)/[IC50]
1,"CC(C)Cn1cc(C(=O)O)c(=O)c2cc(F)c(N(C)Cc3ccccc3)cc21 [Example 1, 7-(benzyl(methyl)amino)-6-fluoro-1-isobutyl-4-oxo-1,4-dihydroquinoline-3-carboxylic acid]",86%
